Tests used:
[1] = system: tobacco budworm (Heliothis virescens [Fabricius]); assay: surface-treated diet test against tobacco budworm; type: in vivo; details: 0.25 millimolar on the surface of the diet, second instar larvae, five-day exposure; for Percent Growth Inhibition: insect weight relative to untreated controls
Excerpt: The test compounds of formula I are identified by numbers that correspond to those in Table 1.

tobacco budworm = assay: foliar treated test against tobacco budworm on chick pea plants; type: in vivo, Heliothis virescens; details: 96 hour exposure, dead plus moribund insects
Description: Certain compounds of formula I were tested against tobacco budworm on plant foliage. The foliar treated test against tobacco budworm were conducted in the following manner:
Nine-to-ten day-old chick pea plants (Cicer arietinum) were sprayed at 15 psi to runoff on both upper and lower leaf surfaces with solutions of test compound to provide application rates as high as 1000 ppm of test chemical. The solvent used to prepare the solutions of test compound was 10% acetone or methanol (v/v) and 0.1% of the surfactant octylphenoxypolyethoxyethanol in distilled water. Four replicates, each containing one chick pea plant, for each rate of application of test compound were sprayed. The treated plants were transferred to a hood where they were kept until the spray had dried.
The four chick pea plants for each replicate treated with test compound as described above were removed from their pots by cutting the stems just above the soil line. The excised leaves and stems from the four plants in each replicate were placed in individual 237 mL (8-ounce) paper cups, which contained a moistened filter paper. Five second-instar tobacco budworm (7 days old) were counted into each cup, taking care not to cause injury. An opaque plastic lid was placed on each cup, which was then held in a growth chamber for a 96 hour exposure period at 25° C., 50% relative humidity and photo-period of 12 hours light and 12 hours dark. At the end of the 96 hour exposure period the cups were opened, and the numbers of dead, moribund, and live insects were counted. Using the insect counts, the efficacy of the test compound was expressed in percent control. Percent control is derived from the total number of dead insects (TD) plus the total number of moribund insects (TM) as compared to the total number of insects (TI) in the test:
The condition of the test plants was also observed for phytotoxicity and for reduction of feeding damage as compared to an untreated control.

[2] = 10 ppm foliar spray on chick pea
[3] = 30 ppm foliar spray on chick pea

| SMILES | Percent Growth Inhibition [1] | Percent Control (tobacco budworm; [2]) | Percent Control (tobacco budworm; [3]) | Percent Mortality [1] |
| --- | --- | --- | --- | --- |
| CC1(C)Oc2ccc(OCCCCOc3c(Cl)cc(OCC=C(Cl)Cl)cc3Cl)cc2O1 [Compound 4, 5-{4-[4-(3,3-dichloroprop-2-enyloxy)-2,6-dichlorophenoxy]butoxy}-2,2-dimethylbenzo[d]1,3-dioxolane] | 100% | 83% | 100% |  |
| CC1(C)Cc2cc(Cl)cc(OCCOc3c(Cl)cc(OCC=C(Cl)Cl)cc3Cl)c2O1 [Compound 1] |  |  | 70% |  |
| CC1(C)Oc2cccc(OCCCCOc3c(Cl)cc(OCC=C(Cl)Cl)cc3Cl)c2O1 [Compound 2, 5-(3,3-Dichloroprop-2-enyloxy)-2-[4-(2,2-dimethylbenzo[d]1,3-dioxolan-4-yloxy)butoxy]-1,3-dichlorobenzene] | 100% | 85% | 100% |  |
| FC1(F)Oc2ccc(OCCCCOc3c(Cl)cc(OCC=C(Cl)Cl)cc3Cl)cc2OC1(F)F [Compound 9, 5-(3,3-Dichloroprop-2-enyloxy)-1,3-dichloro-2-[4-(2,2,3,3-tetrafluorobenzo[3,4-e]1,4-dioxan-6-yloxy)butoxy]benzene] | 100% |  | 100% | 100% |

Reference: patent US7585891B2, “Pesticidal (dihalopropenyl)phenylalkyl substituted benzodioxolane and benzodioxole derivatives” (FMC Corporation, priority 2003, dated 2009)
